This note sets out measurements from article PMC5218480 (PLoS ONE, 2017).

This assay concerns MV-4-11 cells. In words: Gene expression microarray analysis (Affymetrix PrimeView) and GSEA. The assay is classed as cell-based, human. The arrangement: RFU PODN (11730768_x_at) / Fold change /veh PODN (11730768_x_at) / RFU LINC00158 (11744669_a_at) / Fold change /veh LINC00158 (11744669_a_at) / RFU DUSP10 (11751237_a_at) / Fold change /veh DUSP10 (11751237_a_at) / RFU ID3 (11757404_x_at) / Fold change /veh ID3 (11757404_x_at) / RFU PLEKHG5 (11737974_s_at) / Fold change /veh PLEKHG5 (11737974_s_at) / RFU LRRC4B (11730491_at) / Fold change /veh LRRC4B (11730491_at) / RFU GIMAP4 (11747438_a_at) / Fold change /veh GIMAP4 (11747438_a_at) / RFU KRT8 (11758183_x_at) / Fold change /veh KRT8 (11758183_x_at) / RFU CNN1 (11734310_a_at) / Fold change /veh CNN1 (11734310_a_at) / RFU VPS37D (11726825_at) / Fold change /veh VPS37D (11726825_at) / RFU C10orf10 (11716522_x_at) / Fold change /veh C10orf10 (11716522_x_at) / RFU KIR2DL2 /// KIR2DL4 /// KIR2DL5A /// KIR2DL5B /// KIR2DS1 /// KIR2DS2 /// KIR2DS3 /// KIR2DS4 /// KIR3DL3 /// KIR3DL3 /// KIR3DS1 (11738374_at) / Fold change /veh KIR2DL2 /// KIR2DL4 /// KIR2DL5A /// KIR2DL5B /// KIR2DS1 /// KIR2DS2 /// KIR2DS3 /// KIR2DS4 /// KIR3DL3 /// KIR3DL3 /// KIR3DS1 (11738374_at) / RFU C1QL1 (11718748_at) / Fold change /veh C1QL1 (11718748_at) / RFU TMPRSS4 (11747572_a_at) / Fold change /veh TMPRSS4 (11747572_a_at) / RFU HAMP (11756126_x_at) / Fold change /veh HAMP (11756126_x_at) / RFU RNFT2 (11725882_a_at) / Fold change /veh RNFT2 (11725882_a_at) / RFU NR4A2 (11747474_a_at) / Fold change /veh NR4A2 (11747474_a_at) / RFU ABCC12 (11746883_a_at) / Fold change /veh ABCC12 (11746883_a_at) / RFU TMEM136 (11760407_x_at) / Fold change /veh TMEM136 (11760407_x_at) / RFU CLDN22 /// WWC2 (11732394_at) / Fold change /veh CLDN22 /// WWC2 (11732394_at) / RFU HLA-DPB1 (11760878_x_at) / Fold change /veh HLA-DPB1 (11760878_x_at) / RFU SPINT1 (11716480_a_at) / Fold change /veh SPINT1 (11716480_a_at) / RFU GAP43 (11754022_s_at) / Fold change /veh GAP43 (11754022_s_at) / RFU A4GNT (11735810_at) / Fold change /veh A4GNT (11735810_at) / RFU PRB3 (11715151_x_at) / Fold change /veh PRB3 (11715151_x_at) / RFU TUBB4B (11761932_at) / Fold change /veh TUBB4B (11761932_at) / RFU CAPN14 (11732068_a_at) / Fold change /veh CAPN14 (11732068_a_at) / RFU TMCC2 (11721928_a_at) / Fold change /veh TMCC2 (11721928_a_at) / RFU IRGQ (11745062_a_at) / Fold change /veh IRGQ (11745062_a_at) / RFU FAM174B (11720279_a_at) / Fold change /veh FAM174B (11720279_a_at) / RFU TMPRSS4 (11748680_a_at) / Fold change /veh TMPRSS4 (11748680_a_at) / RFU FAM212B (11763350_a_at) / Fold change /veh FAM212B (11763350_a_at) / RFU PLEKHG5 (11743358_a_at) / Fold change /veh PLEKHG5 (11743358_a_at) / RFU ZSCAN30 (11745921_a_at) / Fold change /veh ZSCAN30 (11745921_a_at) / RFU CMKLR1 (11741424_a_at) / Fold change /veh CMKLR1 (11741424_a_at) / RFU LOC101060620 /// MAPK8IP1 (11723275_at) / Fold change /veh LOC101060620 /// MAPK8IP1 (11723275_at) / RFU SPTSSB (11747773_x_at) / Fold change /veh SPTSSB (11747773_x_at) / RFU PRSS12 (11739890_at) / Fold change /veh PRSS12 (11739890_at) / RFU BIN1 (11741810_x_at) / Fold change /veh BIN1 (11741810_x_at) / RFU WNT11 (11732464_a_at) / Fold change /veh WNT11 (11732464_a_at) / RFU C10orf10 (11716521_a_at) / Fold change /veh C10orf10 (11716521_a_at) / RFU C5orf56 (11738089_at) / Fold change /veh C5orf56 (11738089_at) / RFU CYB561 (11721691_x_at) / Fold change /veh CYB561 (11721691_x_at) / RFU ANKRD19P (11752326_a_at) / Fold change /veh ANKRD19P (11752326_a_at) / RFU OR2T12 /// OR2T33 /// OR2T8 (11738714_s_at) / Fold change /veh OR2T12 /// OR2T33 /// OR2T8 (11738714_s_at) / RFU VCAN (11748164_a_at) / Fold change /veh VCAN (11748164_a_at) / RFU JSRP1 (11732532_at) / Fold change /veh JSRP1 (11732532_at) / RFU KRTAP10-11 (11738290_x_at) / Fold change /veh KRTAP10-11 (11738290_x_at) / RFU MYO3A (11730013_a_at) / Fold change /veh MYO3A (11730013_a_at) / RFU EBF3 (11725865_a_at) / Fold change /veh EBF3 (11725865_a_at) / RFU CAMK2N1 (11719241_x_at) / Fold change /veh CAMK2N1 (11719241_x_at) / RFU C5orf56 (11738088_a_at) / Fold change /veh C5orf56 (11738088_a_at) / RFU OLFML3 (11715873_a_at) / Fold change /veh OLFML3 (11715873_a_at) / RFU LOC100653217 /// NTM (11731650_a_at) / Fold change /veh LOC100653217 /// NTM (11731650_a_at) / RFU MAPK11 (11762145_a_at) / Fold change /veh MAPK11 (11762145_a_at) / RFU FIZ1 (11724087_x_at) / Fold change /veh FIZ1 (11724087_x_at) / RFU OASL (11726364_x_at) / Fold change /veh OASL (11726364_x_at) / RFU SOX15 (11748057_x_at) / Fold change /veh SOX15 (11748057_x_at) / RFU CD79A (11719716_a_at) / Fold change /veh CD79A (11719716_a_at) / RFU HIST1H1D (11736915_at) / Fold change /veh HIST1H1D (11736915_at) / RFU CASKIN2 (11723855_a_at) / Fold change /veh CASKIN2 (11723855_a_at) / RFU LOC730098 (11760151_x_at) / Fold change /veh LOC730098 (11760151_x_at) / RFU OR4N2 (11742367_at) / Fold change /veh OR4N2 (11742367_at) / RFU PRRT2 (11749266_a_at) / Fold change /veh PRRT2 (11749266_a_at) / RFU SNX32 (11753110_a_at) / Fold change /veh SNX32 (11753110_a_at) / RFU CDHR5 (11726645_a_at) / Fold change /veh CDHR5 (11726645_a_at) / RFU RCAN1 (11760418_a_at) / Fold change /veh RCAN1 (11760418_a_at) / RFU FAM167A (11723789_a_at) / Fold change /veh FAM167A (11723789_a_at) / RFU FAM26E (11764081_at) / Fold change /veh FAM26E (11764081_at) / RFU ISYNA1 (11749810_s_at) / Fold change /veh ISYNA1 (11749810_s_at) / RFU ACY1 (11761880_at) / Fold change /veh ACY1 (11761880_at) / RFU 11764098_at / Fold change /veh 11764098_at / RFU SAMD14 (11745864_x_at) / Fold change /veh SAMD14 (11745864_x_at) / RFU NPB (11741838_a_at) / Fold change /veh NPB (11741838_a_at) / RFU TMPRSS6 (11731388_a_at) / Fold change /veh TMPRSS6 (11731388_a_at) / RFU KRTAP10-2 (11738614_at) / Fold change /veh KRTAP10-2 (11738614_at) / RFU ARHGAP8 /// PRR5-ARHGAP8 (11727945_x_at) / Fold change /veh ARHGAP8 /// PRR5-ARHGAP8 (11727945_x_at) / RFU KRTAP5-7 /// NADSYN1 (11734609_at) / Fold change /veh KRTAP5-7 /// NADSYN1 (11734609_at) / RFU RASL12 (11751679_a_at) / Fold change /veh RASL12 (11751679_a_at) / RFU CDKN2B (11736163_a_at) / Fold change /veh CDKN2B (11736163_a_at) / RFU PRF1 (11729649_at) / Fold change /veh PRF1 (11729649_at) / RFU, ZNF638 /// ZNF638-IT1 / Fold change vs veh, ZNF638 /// ZNF638-IT1 / RFU, PANK3 / Fold change vs veh, PANK3 / RFU, SH3YL1 / Fold change vs veh, SH3YL1 / RFU, ZEB2 / Fold change vs veh, ZEB2 / RFU, NRIP1 / Fold change vs veh, NRIP1 / RFU, PTTG1IP / Fold change vs veh, PTTG1IP / RFU, CAPN2 / Fold change vs veh, CAPN2 / RFU, MED14 / Fold change vs veh, MED14 / RFU, SNORA58 / Fold change vs veh, SNORA58 / RFU, C1orf63 / Fold change vs veh, C1orf63 / RFU, LRRFIP1 / Fold change vs veh, LRRFIP1 / RFU, NDUFAF7 / Fold change vs veh, NDUFAF7 / RFU, SLC12A2 / Fold change vs veh, SLC12A2 / RFU, IBTK / Fold change vs veh, IBTK / RFU, ESF1 / Fold change vs veh, ESF1 / Fold change vs veh, TMEM50B / RFU, TAOK1 / Fold change vs veh, TAOK1 / RFU, ACBD3 / Fold change vs veh, ACBD3 / RFU, TMA16 / Fold change vs veh, TMA16 / RFU, RWDD3 / Fold change vs veh, RWDD3 / RFU, BCAT1 / Fold change vs veh, BCAT1 / RFU, EDEM3 / Fold change vs veh, EDEM3 / RFU, TMEM33 / Fold change vs veh, TMEM33 / RFU, WDR75 / Fold change vs veh, WDR75 / RFU, AHCTF1 / Fold change vs veh, AHCTF1 / RFU, TFRC / Fold change vs veh, TFRC / RFU, ZDHHC17 / Fold change vs veh, ZDHHC17 / RFU, NOM1 / Fold change vs veh, NOM1 / RFU, ARL8B / Fold change vs veh, ARL8B / RFU, ZBTB11 / Fold change vs veh, ZBTB11 / RFU, TAMM41 / Fold change vs veh, TAMM41 / RFU, KIAA1704 /// LOC100996395 / Fold change vs veh, KIAA1704 /// LOC100996395 / RFU, ING1 / Fold change vs veh, ING1 / RFU, TRMT61B / Fold change vs veh, TRMT61B / RFU, FUBP3 / Fold change vs veh, FUBP3 / RFU, TP53 / Fold change vs veh, TP53 / RFU, TNKS2 / Fold change vs veh, TNKS2 / RFU, ZFP14 / Fold change vs veh, ZFP14 / RFU, ACTR2 / Fold change vs veh, ACTR2 / RFU, PPP3R1 / Fold change vs veh, PPP3R1 / RFU, PIK3R1 / Fold change vs veh, PIK3R1 / RFU, HNRNPA1 / Fold change vs veh, HNRNPA1 / RFU, RNF170 / Fold change vs veh, RNF170 / RFU, ZNF28 / Fold change vs veh, ZNF28 / RFU, RNGTT / Fold change vs veh, RNGTT / RFU, OGT / Fold change vs veh, OGT / RFU, BRD1 / Fold change vs veh, BRD1 / RFU, MARS / Fold change vs veh, MARS / RFU, ZNF655 / Fold change vs veh, ZNF655 / RFU, FAHD1 / Fold change vs veh, FAHD1 / RFU, BDP1 / Fold change vs veh, BDP1 / RFU, LRRCC1 / Fold change vs veh, LRRCC1 / RFU, ARID1A / Fold change vs veh, ARID1A / RFU, ZNF146 / Fold change vs veh, ZNF146 / RFU, ZNF330 / Fold change vs veh, ZNF330 / RFU, GPN3 / Fold change vs veh, GPN3 / RFU, C9orf123 / Fold change vs veh, C9orf123 / RFU, N4BP2L2 / Fold change vs veh, N4BP2L2 / RFU, ARFIP1 / Fold change vs veh, ARFIP1 / RFU, FAM179B / Fold change vs veh, FAM179B / RFU, BCL10 / Fold change vs veh, BCL10 / RFU, UHRF1BP1L / Fold change vs veh, UHRF1BP1L / RFU, BET1 / Fold change vs veh, BET1 / RFU, CNOT2 / Fold change vs veh, CNOT2 / RFU, ZNF268 / Fold change vs veh, ZNF268 / Fold change vs veh, ZNF507 / RFU, DGCR2 / Fold change vs veh, DGCR2 / RFU, WDSUB1 / Fold change vs veh, WDSUB1 / Fold change vs veh, HSP90B1 /// MIR3652 / RFU, ADSS / Fold change vs veh, ADSS / RFU, GK / Fold change vs veh, GK / RFU, ZNF148 / Fold change vs veh, ZNF148 / RFU, TAF9 / Fold change vs veh, TAF9 / RFU, SLC1A5 / Fold change vs veh, SLC1A5 / RFU, SLMO2 / Fold change vs veh, SLMO2 / RFU, ABCC4 / Fold change vs veh, ABCC4 / RFU, LOC101060439 /// RAP1B / Fold change vs veh, LOC101060439 /// RAP1B / RFU, RFX7 / Fold change vs veh, RFX7 / RFU, GTPBP10 / Fold change vs veh, GTPBP10 / RFU, CNEP1R1 / Fold change vs veh, CNEP1R1 / RFU, BIVM-ERCC5 /// ERCC5 / Fold change vs veh, BIVM-ERCC5 /// ERCC5 / RFU, ILF3 / Fold change vs veh, ILF3 / RFU 11762660_at / Fold change /veh 11762660_at / RFU VCAN (11757783_s_at) / Fold change /veh VCAN (11757783_s_at) / RFU DDX43 (11728927_at) / Fold change /veh DDX43 (11728927_at) / RFU KRT8 (11758188_x_at) / Fold change /veh KRT8 (11758188_x_at) / RFU NKD1 (11759106_at) / Fold change /veh NKD1 (11759106_at) / RFU SRD5A1 (11742802_a_at) / Fold change /veh SRD5A1 (11742802_a_at) / RFU TPSAB1 /// TPSB2 (11721975_s_at) / Fold change /veh TPSAB1 /// TPSB2 (11721975_s_at) / RFU GSTM3 (11746129_a_at) / Fold change /veh GSTM3 (11746129_a_at) / RFU IL23R (11737362_x_at) / Fold change /veh IL23R (11737362_x_at) / RFU TMEM51 (11727254_a_at) / Fold change /veh TMEM51 (11727254_a_at) / RFU PIWIL2 (11732686_x_at) / Fold change /veh PIWIL2 (11732686_x_at) / RFU ORM1 (11744905_x_at) / Fold change /veh ORM1 (11744905_x_at) / RFU CCDC152 (11743942_at) / Fold change /veh CCDC152 (11743942_at) / RFU ECM1 (11717891_a_at) / Fold change /veh ECM1 (11717891_a_at) / RFU IL23R (11748794_a_at) / Fold change /veh IL23R (11748794_a_at) / RFU TNFAIP8L3 (11732012_x_at) / Fold change /veh TNFAIP8L3 (11732012_x_at) / RFU MBOAT4 (11741988_at) / Fold change /veh MBOAT4 (11741988_at) / RFU 11764193_at / Fold change /veh 11764193_at / RFU TMEM53 (11763286_at) / Fold change /veh TMEM53 (11763286_at) / RFU MAGEB2 (11727129_at) / Fold change /veh MAGEB2 (11727129_at) / RFU TMEM200A (11744735_a_at) / Fold change /veh TMEM200A (11744735_a_at) / RFU CCDC152 (11751479_a_at) / Fold change /veh CCDC152 (11751479_a_at) / RFU FAM211A (11726209_a_at) / Fold change /veh FAM211A (11726209_a_at) / RFU RGS16 (11746705_a_at) / Fold change /veh RGS16 (11746705_a_at) / RFU VCAN (11755009_s_at) / Fold change /veh VCAN (11755009_s_at) / RFU RHOB (11743442_s_at) / Fold change /veh RHOB (11743442_s_at) / RFU RGS16 (11720943_a_at) / Fold change /veh RGS16 (11720943_a_at) / RFU RGS16 (11720944_at) / Fold change /veh RGS16 (11720944_at) / RFU, VPS4B / Fold change vs veh, VPS4B / RFU, CREB1 / Fold change vs veh, CREB1 / RFU, DNAJC13 / Fold change vs veh, DNAJC13 / RFU, GNAQ / Fold change vs veh, GNAQ / RFU, CDK5R1 / Fold change vs veh, CDK5R1 / RFU, ZRANB3 / Fold change vs veh, ZRANB3 / RFU, CUL4A / Fold change vs veh, CUL4A / RFU, CCNY / Fold change vs veh, CCNY / RFU, UFL1 / Fold change vs veh, UFL1 / RFU, COG3 / Fold change vs veh, COG3 / RFU, DIAPH2 / Fold change vs veh, DIAPH2 / RFU, SKA2 / Fold change vs veh, SKA2 / RFU, AFF3 / Fold change vs veh, AFF3 / RFU, LMF1 / Fold change vs veh, LMF1 / RFU, IPO11 / Fold change vs veh, IPO11 / RFU, DFFB / Fold change vs veh, DFFB / RFU, FOXP1 / Fold change vs veh, FOXP1 / RFU, CARD8 / Fold change vs veh, CARD8 / RFU, STRN3 / Fold change vs veh, STRN3 / RFU, ADK / Fold change vs veh, ADK / RFU, RASSF2 / Fold change vs veh, RASSF2 / RFU, WIPF1 / Fold change vs veh, WIPF1 / RFU, LARP1B / Fold change vs veh, LARP1B / RFU, RASA1 / Fold change vs veh, RASA1 / RFU, RB1 / Fold change vs veh, RB1 / RFU, PPFIA1 / Fold change vs veh, PPFIA1 / RFU, MAT2A / Fold change vs veh, MAT2A / RFU, CCT5 / Fold change vs veh, CCT5 / RFU, WDR92 / Fold change vs veh, WDR92 / RFU, CUX1 / Fold change vs veh, CUX1 / RFU, TTC7A / Fold change vs veh, TTC7A / RFU, TMEM135 / Fold change vs veh, TMEM135 / RFU, DEPTOR / Fold change vs veh, DEPTOR / RFU, CPM / Fold change vs veh, CPM / RFU, DNAJB6 / Fold change vs veh, DNAJB6 / RFU, CACNA2D3 / Fold change vs veh, CACNA2D3 / RFU, DTX4 / Fold change vs veh, DTX4 / RFU, TFCP2 / Fold change vs veh, TFCP2 / RFU, GMCL1 /// GMCL1P1 / Fold change vs veh, GMCL1 /// GMCL1P1 / RFU, AEBP2 / Fold change vs veh, AEBP2 / RFU, SNHG1 /// SNORD22 /// SNORD25 /// SNORD26 /// SNORD27 /// SNORD28 /// SNORD29 /// SNORD31 / Fold change vs veh, SNHG1 /// SNORD22 /// SNORD25 /// SNORD26 /// SNORD27 /// SNORD28 /// SNORD29 /// SNORD31 / Fold change (Aza/veh), C12orf56 (ProbeSet 11735607_a_at) / Fold change (ACY-1035/veh), C12orf56 (ProbeSet 11735607_a_at) / Fold change (Aza/veh), FGFR1OP (ProbeSet 11751329_s_at) / Fold change (ACY-1035/veh), FGFR1OP (ProbeSet 11751329_s_at) / Fold change (Aza/veh), VPS36 (ProbeSet 11739960_a_at) / Fold change (ACY-1035/veh), VPS36 (ProbeSet 11739960_a_at) / RFU SYPL1 (11715823_x_at) / Fold change /veh SYPL1 (11715823_x_at) / RFU IGFBP7 (11715501_s_at) / Fold change /veh IGFBP7 (11715501_s_at) / RFU REEP3 (11722064_at) / Fold change /veh REEP3 (11722064_at) / RFU IGLL1 (11728026_x_at) / Fold change /veh IGLL1 (11728026_x_at): dose or concentration left out as unconfirmed. The following applies: ProbeSet 11725885_a_at; LIST B.

Regarding `Nc1ncn([C@@H]2O[C@H](CO)[C@@H](O)[C@H]2O)c(=O)n1` [azacitidine], the “RFU, CNEP1R1” value is 65.19 RFU.
